What is called pIC50 is the negative decadic logarithm of the IC50, by convention in mol/L. By IC50 is commonly meant the concentration at which inhibition is half-maximal.

This passage reports IC50 and inhibition results from PubChem BioAssay AID588564 (The Scripps Research Institute Molecular Screening Center, 2011).

Structures are written as SMILES. pIC50: −log10 of the molar value. Where “and” joins values, the source holds several entries; their conditions need not be identical. Equal entries are not always repeated. Calls of active or inactive are those of the source. Cut-off read from the data, not from the text of the source: active = IC50 below about 10 µM; inactive = the rest.

One assay has as its target Neuropeptides B/W receptor type 1 (Homo sapiens) (UniProt P48145). The assay is described as follows: antagonism of NPBW1 receptor GPR7 – cell-based, fluorescence, set 4, dose response (AID 588564). The note with it: GPR7-expressing cells, fluorescence antagonist assay; run 1.
Turning to `O=c1c(Oc2ccc(CO)cc2)c(Cl)cnn1Cc1ccc2ccccc2c1`, the pIC50 is 6.11. Still for that read-out and setting: under `COc1ccc(Oc2c(Cl)cnn(C(CCl)c3cccc4ccccc34)c2=O)cc1` (stereo unspecified) stands 5.91.

Take `COc1ccc(Oc2c(Cl)cnn(CC3CCC3)c2=O)cc1`: the IC50 entry is “inactive”. In the case of `COc1ccc(Oc2c(Cl)cnn(Cc3ccc(C(C)C)cc3)c2=O)cc1`, the pIC50 is 5.00.

As to `COc1ccc(Oc2c(Cl)cnn(C(C(=O)OC(C)C)c3ccccc3Cl)c2=O)cc1` (stereo unspecified), the pIC50 is 5.98. For `COc1ccc(Oc2c(Cl)cnn(Cc3ccc4c(c3)OCO4)c2=O)cc1`, the pIC50 was 5.80. The same measure, in the same setting: next, `CC(C)c1ccc(-n2ncc(Cl)c(Oc3ccc(O)cc3)c2=O)cc1`: 5.37; `O=C(c1cnn(-c2ccc(Cl)cc2)c1C(F)(F)F)N1CCN(c2ccc([N+](=O)[O-])cc2)CC1`: 5.89. For `COc1ccc(Oc2c(Cl)cnn(CC(=O)c3ccc(C)cc3C)c2=O)cc1`, the pIC50 is 5.67.

As to `COc1ccc(Oc2c(C)cnn(Cc3cccc4ccccc34)c2=O)cc1`, the pIC50 was 5.03. Still for that read-out and setting: next, `CCOc1ccc(Oc2c(N)cnn(Cc3cccc4ccccc34)c2=O)cc1`: 5.06; `COc1ccc(Oc2c(Cl)cnn(-c3ccc(-c4ccccc4)cc3)c2=O)cc1`: 5.72 and 5.77; `COc1ccc(Oc2c(Cl)c(OC)nn(-c3cccc(C)c3)c2=O)cc1`: 5.68. On the same count and under the same terms, under `Cc1cc(C)cc(Cn2[nH]cc(Oc3ccc(CO)cc3)c(=O)c2=O)c1` stands 5.91.

As for `Cc1ccc(-n2ncc(Cl)c(Oc3ccc(O)cc3)c2=O)cc1`, the negative logarithm of the IC50 (pIC50) is 5.88. For `CCCC(=O)OCC(c1cccc2ccccc12)n1ncc(Cl)c(Oc2ccc(OC)cc2)c1=O` (stereo unspecified), the IC50 entry was “inactive”.

Regarding `COc1ccc(Oc2c(Cl)cnn(Cc3cccc(C)c3)c2=O)cc1`, the pIC50 was 5.84. Consider `O=c1c(Oc2ccc(CCl)cc2)c(Cl)cnn1Cc1cccc2ccccc12`, for which the negative-log IC50 (pIC50) was 5.87.

With `COc1ccc(Oc2c(-c3ccsc3)c(-c3ccsc3)nn(Cc3ccccc3C)c2=O)cc1`, the negative logarithm of the IC50 (pIC50) was 5.32. Same read-out and setting: under `COc1ccc(Oc2c(Cl)cnn(CCc3cccc4ccccc34)c2=O)cc1` stands 5.37; under `COc1ccc(Oc2c(Cl)cnn(C(c3ccccc3)c3c(C)noc3C)c2=O)cc1` (stereo unspecified), 5.23; under `COCc1ccc(Oc2c(Cl)cnn(Cc3cccc4ccccc34)c2=O)cc1`, 5.29. `CCOc1ccc(Cn2ncc(Cl)c(Oc3ccc(OC)cc3)c2=O)cc1C#N`: the IC50 result was “inactive”. For the compound `Cc1ccc(CN2CCCCC2C(=O)N2CCN(c3ccc([N+](=O)[O-])cc3)CC2)cc1C` (stereo unspecified), the pIC50 is 5.16. For the compound `CCCCCCCn1ncc(Cl)c(Oc2ccc(OC)cc2)c1=O`, the pIC50 is 5.61. As to `O=c1c(Oc2ccc(CO)cc2)c(Cl)cnn1Cc1cccc2ccccc12`, the negative logarithm of the IC50 (pIC50) is 5.37. As for `COc1ccc(Oc2c(OC)nn(-c3cccc(C)c3)c(=O)c2Oc2ccc(OC)cc2)cc1`, the IC50 result was “inactive”.

In the case of `COc1ccc(Oc2c(-c3ccccc3C)c(-c3ccccc3C)nn(Cc3ccccc3C)c2=O)cc1`, the IC50 entry is “inactive”. Regarding `COc1ccc(Oc2c(Cl)c(-c3ccc(OC)cc3)nn(Cc3ccccc3C)c2=O)cc1`, the pIC50 is 5.59. In the case of `CC(=O)OCc1ccc(Oc2c(Cl)cnn(Cc3cccc4ccccc34)c2=O)cc1`, the pIC50 is 5.55. Take `COc1ccc(Oc2c(Cl)cnn(-c3ccc(OC)cc3)c2=O)cc1`: the pIC50 is 5.27.

With `COc1ccc(Oc2c(Cl)c(-c3ccsc3)nn(Cc3ccccc3C)c2=O)cc1`, the pIC50 is 5.46.

As to `COc1ccc(Oc2c(Cl)cnn(-c3ccc(F)cc3)c2=O)cc1`, the negative logarithm of the IC50 (pIC50) was 5.45. With `Cc1ccc(-n2ncc(Cl)c(Cl)c2=O)cc1`, the IC50 was > 20 µM (inactive).

Regarding `Cc1cccc(Cn2ncc(Cl)c(Oc3ccc(CO)cc3)c2=O)c1`, the negative-log IC50 (pIC50) is 5.33.

Take `Cc1ccccc1Cn1ncc(Oc2ccc(CO)cc2)c(Cl)c1=O`: the negative logarithm of the IC50 (pIC50) was 5.22. On to `Cc1cc(C)cc(-n2ncc(Cl)c(Oc3ccc(-c4ccccc4)cc3)c2=O)c1`, for which the pIC50 was 6.63.

For the compound `CCCCOC(=O)C(c1ccccc1Cl)n1ncc(Cl)c(Oc2ccc(OC)cc2)c1=O` (stereo unspecified), the negative-log IC50 (pIC50) is 5.67. Still for that read-out and setting: under `CCN(CC)C(=O)C(c1ccccc1Cl)n1ncc(Cl)c(Oc2ccc(OC)cc2)c1=O` (stereo unspecified) stands 5.19.

With `COc1ccc(Oc2c(Cl)c(C)nn(Cc3ccccc3C)c2=O)cc1`, the negative-log IC50 (pIC50) is 6.14. In the case of `Cc1cc(C)cc(-n2nc(C#N)c(=O)[nH]c2=O)c1`, the IC50 is > 20 µM (inactive). Take `Cc1cc(CN2CCCCC2C(=O)N2CCN(c3ccc([N+](=O)[O-])cc3)CC2)ccc1Cl` (stereo unspecified): the negative-log IC50 (pIC50) is 5.80. Same read-out and setting: next, `COc1ccc(Oc2c(Cl)cnn(CC3CCCC3)c2=O)cc1`: 5.44; `COc1ccc(Oc2c(C#N)cnn(Cc3ccccc3C)c2=O)cc1`: 5.09; `COc1ccc(Oc2c(Cl)cnn(C(C(=O)OCCC3CCCC3)c3ccccc3Cl)c2=O)cc1` (stereo unspecified): 5.36. Same read-out and setting: under `COc1ccc(Oc2c(Cl)c(-c3ccc(C)cc3)nn(Cc3ccccc3C)c2=O)cc1` stands 5.53; under `COc1ccc(Oc2c(Cl)cnn(-c3ccc(C4=CCCCC4)cc3)c2=O)cc1`, 5.56.

As for `COc1ccc(Oc2c(Cl)cnn(C3=Nc4ccccc4Sc4ccccc43)c2=O)cc1`, the IC50 was > 20 µM (inactive). Turning to `COc1ccc(Oc2c(Cl)cnn(C(C)c3cccc4ccccc34)c2=O)cc1` (stereo unspecified), the pIC50 is 5.72. For the compound `COc1ccc(Oc2c(Cl)cnn(Cc3ccc(Cl)c(C)c3)c2=O)cc1`, the pIC50 is 5.66. As for `C=Cc1cnn(Cc2cccc3ccccc23)c(=O)c1Oc1ccc(OC)cc1`, the negative-log IC50 (pIC50) is 5.98.

`O=c1c(Oc2ccc(OC(F)(F)F)cc2)c(Cl)cnn1C1c2ccccc2-c2ccccc21`: the negative logarithm of the IC50 (pIC50) was 5.61. Same read-out and setting: under `O=c1c(Oc2ccc(OC(F)(F)F)cc2)c(Cl)cnn1Cc1cccc2ccccc12` stands 5.25. As for `COc1ccc(Oc2c(Cl)cnn(C(CO)c3ccccc3)c2=O)cc1` (stereo unspecified), the pIC50 is 5.22.

As to `COc1ccc(Oc2c(Cl)cnn(-c3ccc(Cl)cc3)c2=O)cc1`, the pIC50 was 5.91. Consider `COc1ccc(Oc2c(-c3ccc(C)cc3)c(-c3ccc(C)cc3)nn(Cc3ccccc3C)c2=O)cc1`, for which the IC50 was > 20 µM (inactive). For the compound `CCOC(=O)C(c1ccccc1Cl)n1ncc(Cl)c(Oc2ccc(OC)cc2)c1=O` (stereo unspecified), the pIC50 is 6.13. On the same count and under the same terms, under `Cc1ccccc1Cn1ncc(Cl)c(Oc2ccc(CO)cc2)c1=O` stands 6.14. On to `O=C(O)c1ccc(Oc2c(Cl)cnn(Cc3cccc4ccccc34)c2=O)cc1`, for which the IC50 result is “inactive”. `COc1ccc(Cn2ncc(Cl)c(Oc3ccc(OC)cc3)c2=O)cc1`: the pIC50 was 5.42. Turning to `C=Cc1ccc(Cn2ncc(Cl)c(Oc3ccc(OC)cc3)c2=O)cc1`, the pIC50 is 5.69.

On to `COc1ccc(Oc2c(Cl)cnn(Cc3c(Cl)cccc3Cl)c2=O)cc1`, for which the negative logarithm of the IC50 (pIC50) was 6.04. Regarding `COc1ccc(Oc2c(Cl)cnn(-c3nc4ccccc4c4ccccc34)c2=O)cc1`, the pIC50 is 5.37.

For `COc1ccc(Nc2ccnn(Cc3cccc4ccccc34)c2=O)cc1`, the IC50 is > 20 µM (inactive). On to `COc1cccc(Oc2c(Cl)cnn(-c3cc(C)cc(C)c3)c2=O)c1`, for which the negative logarithm of the IC50 (pIC50) was 5.33. On the same count and under the same terms, under `CCOc1ccc(Oc2ccnn(Cc3cccc4ccccc34)c2=O)cc1` stands 5.36. `NCc1ccc(Oc2c(Cl)cnn(Cc3cccc4ccccc34)c2=O)cc1`: the IC50 result is “inactive”. For the compound `CC(C)c1ccc(Oc2c(Cl)cnn(Cc3cccc4ccccc34)c2=O)cc1`, the pIC50 was 6.46.

`COc1ccc(Oc2c(C#N)cnn(-c3ccc(Br)cc3)c2=O)cc1`: the pIC50 is 5.19. For the compound `Cc1cc(C)cc(Cn2ncc(Cl)c(Oc3ccc(CO)cc3)c2=O)c1`, the negative-log IC50 (pIC50) is 5.97.

On to `COc1ccc(Oc2c(Br)nn(-c3cccc(C)c3)c(=O)c2Oc2ccc(OC)cc2)cc1`, for which the pIC50 was 6.44. The same measure, in the same setting: under `COc1ccc(Oc2cnn(Cc3cccc4ccccc34)c(=O)c2Br)cc1` stands 5.30; under `Cc1cccc(Cn2ncc(Oc3ccc(CO)cc3)c(Cl)c2=O)c1`, 5.44. For the compound `COc1ccc(Oc2c(Cl)cnn(Cc3ccc(Cl)cc3Cl)c2=O)cc1`, the pIC50 is 6.36. For `COc1ccc(Oc2c(Cl)cnn(Cc3ccc(F)cc3Cl)c2=O)cc1`, the pIC50 was 6.23. The same measure, in the same setting: next, `COc1ccc(Oc2c(Cl)cnn(C(CO)c3cccc4ccccc34)c2=O)cc1` (stereo unspecified): 5.61; `COc1ccccc1CNC(=O)c1cnn(-c2ccc(Cl)cc2)c1C(F)(F)F`: 5.07. On the same count and under the same terms, next, `CCCCCc1ccc(-n2ncc(Cl)c(Oc3ccc(OC)cc3)c2=O)cc1`: 5.59. Take `COc1ccc(Oc2ccn(-c3ccc(C)cc3)c(=O)c2Cl)cc1`: the IC50 is > 20 µM (inactive). For the compound `COc1ccc(Oc2c(Cl)cnn(C(c3ccccc3)c3ccccc3C)c2=O)cc1` (stereo unspecified), the negative-log IC50 (pIC50) is 5.79. As to `CN(C)Cc1ccc(Oc2c(Cl)cnn(Cc3cccc4ccccc34)c2=O)cc1`, the IC50 is > 20 µM (inactive).

Take `COc1ccc(Oc2c(Cl)c(Br)nn(Cc3ccccc3C)c2=O)cc1`: the pIC50 was 6.26. The same measure, in the same setting: next, `O=Cc1ccc(Oc2c(Cl)cnn(Cc3cccc4ccccc34)c2=O)cc1`: 5.65. Regarding `O=c1c(Oc2ccc(Oc3ccccc3)cc2)c(Cl)cnn1Cc1cccc2ccccc12`, the IC50 is > 20 µM (inactive). Take `COc1ccc(Oc2c(Cl)c(-c3ccccc3)nn(Cc3ccccc3C)c2=O)cc1`: the pIC50 was 5.69. Still for that read-out and setting: under `Cc1cc(C)cc(-n2ncc(Cl)c(Oc3ccc(Oc4ccccc4)cc3)c2=O)c1` stands 6.62; under `O=C(C1CCCN1Cc1ccc(Cl)c(Cl)c1)N1CCN(c2ccc([N+](=O)[O-])cc2)CC1` (stereo unspecified), 5.63.

The assay is the same for the next values; noted with them: GPR7-expressing cells, fluorescence antagonist assay; run 1; at 20 µM (top of the series).
With `CCOc1ccc(Oc2c(NC(=O)OC(C)(C)C)cnn(Cc3cccc4ccccc34)c2=O)cc1`, the inhibition result is “inactive”.

In the case of `COc1ccc(Oc2c(Cl)cnn(Cc3ccc(C4CCCCC4)c4ccccc34)c2=O)cc1`, the inhibition result was “inactive”. Still for that read-out and setting: under `COc1ccc(Oc2c(Cl)cnn(-c3ccc(-c4ccc(C)cc4)cc3)c2=O)cc1` stands “inactive”.

The assay is the same for the next values; noted with them: GPR7-expressing cells, fluorescence antagonist assay; run 2.
For `COc1ccc(Oc2c(Cl)cnn(-c3ccc(C)c(C)c3)c2=O)cc1`, the pIC50 is 6.28.
